Values after ≈ are worked out from the molar mass of the structure shown. “Also recorded” adds a separate entry of the source. Read-outs that look alike come from different tables or passages of the source.
Experiments:
[1] = Thermodynamic stability of polymorphs; type: physicochemical
Source text: The term “monotropy” denotes the relationship between two or more crystal forms of the same substance in which the rank order of thermodynamic stabilities of the polymorphs is retained at all temperatures below the melting point.

[2] = Temperature Controlled XRPD / heating: solid form change; type: physicochemical; details: for solid form changes at elevated temperature: Temperature Controlled XRPD
Description: Temperature Controlled XRPD analyses of Form B show a phase transition to Form A at elevated temperature. In the temperature range 105-135° C. only Form A is present. In the temperature range of 65-95° C. an intermediate state is observed that is characterized by significant changes in peak positions.

[3] = Solid form stability towards humidity and water (storage, Humidity Controlled XRPD); details: for phase change upon storage at 100% rH: ambient temperature (Form C: e.g. 30 days); for relative humidity at which Form B dehydrates into Form E: storage / Humidity Controlled XRPD, monohydrate
Description: Humidity Controlled XRPD analyses were performed in reflection geometry with a Siemens D5000 Diffractometer (Cu radiation source, NiK beta filter, Scintillation detector, angular range 3° to 42° 2Theta, approximately 180 minutes total measurement time per humidity level). The diffractometer is equipped with an MR1 (Materials Research Instruments) humidity chamber. The humidity within the chamber is adjusted with an ANSYCO humidity controller (SYCOS H-HOT).
50 mg of Form B was subjected to dehydration/hydration cycles.

[4] = Hygroscopicity (European Pharmacopoeia classification); type: physicochemical; details: for hygroscopicity: mass increase 0% rH to 90% rH
Source text: The term “hygroscopicity” describes the ability of a solid material to adsorb moisture. The hygroscopicity of a given API is characterized [European Pharmacopoeia—6th Edition (2008), Chapter 5.11) by the increase in mass when the relative humidity is raised from 0% rH to 90% rH: • non-hygroscopic: weight increase Δm<0.2%; • slightly hygroscopic: weight increase 0.2%≦Δm<2.0%; • hygroscopic: weight increase 2.0%≦Δm<15.0%; • very hygroscopic: weight increase Δm≧15.0%; • deliquescent: sufficient water is adsorbed to form a liquid.

[5] = Source text: FIG. 20 illustrates the phase solubility diagram of (1,1-dioxo-1λ^6-thiomorpholin-4-yl)-{6-[3-(4-fluoro-phenyl)-5-methyl-isoxazol-4-ylmethoxy]-pyridin-3-yl}-methanone and γ-CD. The API solubility is shown in [μg/mL].
Phase solubility diagrams are used to characterize complex formation between two compounds and represent the solubility of the API as a function of the cyclodextrin concentration. […] Anal. Chem. Instrum. (1965) 4:117-212] and Brewster [M E. Brewster et al. Adv. Drug Delivery Rev. (2007) 59:645-666] (FIG. 20).
Anal. Chem. Instrum. (1965) 4:117-212]:
[formula] […] The binding constant (K) is a measure of the affinity of the API to enter the relatively apolar cavity of the CD.

[6] = Biopharmaceutical classification system (BCS); type: physicochemical
Source text: The compound of formula (I), its manufacture, its pharmacological activity as inverse agonists of the GABA A α5 receptor, and its use for the treatment, prevention and/or delay of progression of various central nervous system (CNS) conditions have been described in WO 2009/071476. […] Res. (1995) 12:413-420].

[7] = In vitro dissolution in miniaturized system (SGF, FeSSIF); type: physicochemical; details: comparison with Form B
Description: FIG. 21 illustrates the mean in vitro dissolution profiles in SGF. Mean in vitro dissolution profiles of micronized powders of Form A (∘), Form B (▾), Form C (▪) and γ-CD inclusion complex (Δ) in SGF at room temperature. Measurements were performed in triplicate (n=3).
FIG. 22 illustrates the mean in vitro dissolution profiles in FeSSIF. Mean in vitro dissolution profiles of micronized powders of Form A (∘), Form B (▾), Form C (▪) and γ-CD inclusion complex (Δ) in FeSSIF at room temperature. Measurements were performed in triplicate (n=3).
The in vitro dissolution studies performed in this work were conducted in a miniaturized system with 100 mL dissolution medium per experiment. In comparison to the 1000 mL vessels of the conventional USP apparatus the experimental set-up that was used here was scaled-down and simplified (magnetic stirring instead of paddles, room temperature instead of 37° C.). […] Simulated gastric fluid (SGF) was prepared with 2 g/L NaCl and 1 g/L Triton® X-100 in 0.1 N HCl. The resulting measured pH of SGF was 1.2.
Oral absorption of a drug compound from a solid dosage form is dependent on dissolution rate and solubility. In the present work the in vitro dissolution of the γ-CD inclusion complex was compared to micronized powders of polymorph Form A, Form B and Form C. […]

[8] = Temperature Controlled XRPD of Form B

**Q.** What does the source list for `Cc1onc(-c2ccc(F)cc2)c1COc1ccc(C(=O)N2CCS(=O)(=O)CC2)cn1` [Form A, (1,1-dioxo-1λ^6-thiomorpholin-4-yl)-{6-[3-(4-fluoro-phenyl)-5-methyl-isoxazol-4-ylmethoxy]-pyridin-3-yl}-methanone]?
**A.** thermodynamic stability of the polymorph [1]: metastable; thermodynamic stability of the polymorph ([1]; listed as form A): only metastable; solid form changes at elevated temperature [2]: do not show solid form changes

**Q.** For `Cc1onc(-c2ccc(F)cc2)c1COc1ccc(C(=O)N2CCS(=O)(=O)CC2)cn1` [amorphous Form, (1,1-dioxo-1λ^6-thiomorpholin-4-yl)-{6-[3-(4-fluoro-phenyl)-5-methyl-isoxazol-4-ylmethoxy]-pyridin-3-yl}-methanone], which “phase change upon storage at 100% rH” value [3] is on record?
**A.** The value was “no phase transformation has been observed”.

**Q.** What about the hygroscopicity [4] of the same molecule?
**A.** Its hygroscopicity is “slightly hygroscopic (weight increase 0.2%≦Δm<2.0%)”.

**Q.** With `Cc1onc(-c2ccc(F)cc2)c1COc1ccc(C(=O)N2CCS(=O)(=O)CC2)cn1` [compound of formula (I), (1,1-Dioxo-1λ^6-thiomorpholin-4-yl)-{6-[3-(4-fluoro-phenyl)-5-methyl-isoxazol-4-ylmethoxy]-pyridin-3-yl}-methanone] as the molecule, how does the “phase solubility diagram type” value [5] read?
**A.** The value was “BS-type behavior”.

**Q.** And the aqueous solubility ([6]; BCS)?
**A.** Its aqueous solubility is “low”.

**Q.** What about the permeability ([6]; BCS) of the same molecule?
**A.** The permeability was “high”.

**Q.** What about the BCS class ([6]; biopharmaceutical classification system) of the same molecule?
**A.** Its BCS class is “BCS 2”.

**Q.** For `Cc1onc(-c2ccc(F)cc2)c1COc1ccc(C(=O)N2CCS(=O)(=O)CC2)cn1` [Form E, (1,1-dioxo-1λ^6-thiomorpholin-4-yl)-{6-[3-(4-fluoro-phenyl)-5-methyl-isoxazol-4-ylmethoxy]-pyridin-3-yl}-methanone], which “relative humidity at which Form E reconverts (rehydrates) into Form B” value ([3]; exposure to humidity) is on record?
**A.** The value was over 5 % rH.

**Q.** Which “thermodynamic stability of the polymorph” value [1] does the source give for `Cc1onc(-c2ccc(F)cc2)c1COc1ccc(C(=O)N2CCS(=O)(=O)CC2)cn1` [Form C, (1,1-dioxo-1λ^6-thiomorpholin-4-yl)-{6-[3-(4-fluoro-phenyl)-5-methyl-isoxazol-4-ylmethoxy]-pyridin-3-yl}-methanone] here?
**A.** Its value is “more stable than Form A; also recorded: most stable polymorph overall”.

**Q.** What about the “phase change upon storage at 100% rH” value [3] of the same molecule?
**A.** Its value is “does not induce this phase change”.

**Q.** And the “phase change in the presence of water” value ([3]; suspended state)?
**A.** The value was “transforms into Form B”.

**Q.** And the “solubility in simulated gastric fluid (SGF)” value [7]?
**A.** Its value is “considerably improved as compared to Form B”.

**Q.** What about the “solid form changes at elevated temperature” value [2] of the same molecule?
**A.** Its value is “do not show solid form changes”.

**Q.** And the “hygroscopicity compared to Form A” value ([4]; comparison)?
**A.** Its value is “less hygroscopic than Form A”.

**Q.** Which “solubility limit in aqueous solution” value [5] does the source give for `OC[C@H]1O[C@@H]2O[C@H]3[C@H](O)[C@@H](O)[C@@H](O[C@H]4[C@H](O)[C@@H](O)[C@@H](O[C@H]5[C@H](O)[C@@H](O)[C@@H](O[C@H]6[C@H](O)[C@@H](O)[C@@H](O[C@H]7[C@H](O)[C@@H](O)[C@@H](O[C@H]8[C@H](O)[C@@H](O)[C@@H](O[C@H]9[C@H](O)[C@@H](O)[C@@H](O[C@H]1[C@H](O)[C@H]2O)O[C@@H]9CO)O[C@@H]8CO)O[C@@H]7CO)O[C@@H]6CO)O[C@@H]5CO)O[C@@H]4CO)O[C@@H]3CO` [γ-cyclodextrin] here?
**A.** The value was 150 mM (≈ 195 mg/mL).

**Q.** With `Cc1onc(-c2ccc(F)cc2)c1COc1ccc(C(=O)N2CCS(=O)(=O)CC2)cn1` [Form B, (1,1-dioxo-1λ^6-thiomorpholin-4-yl)-{6-[3-(4-fluoro-phenyl)-5-methyl-isoxazol-4-ylmethoxy]-pyridin-3-yl}-methanone monohydrate] as the molecule, how does the “stability in the presence of humidity” value ([3]; e.g. at ambient conditions, compared to Form A) read?
**A.** Its value is “substantially increased as compared to Form A”.

**Q.** And the “relative humidity at which Form B dehydrates into Form E” value ([3]; listed as form B)?
**A.** Its value is 0 % rH.

**Q.** What about the “relative humidity at which Form B dehydrates into Form E” value [3] of the same molecule?
**A.** Its value is under 5 % rH.

**Q.** What about the “temperature range in which an intermediate state is observed” value [2, 8] of the same molecule?
**A.** Its value is 65-95 °C.

**Q.** What about the “temperature range in which only Form A is present” value [2, 8] of the same molecule?
**A.** The value was 105-135 °C.

**Q.** And the “temperature of transformation into Form A upon heating” value ([2]; heating)?
**A.** Its value is over 100 °C.

**Q.** What about the hygroscopicity ([4]; monohydrate) of the same molecule?
**A.** The hygroscopicity was “hygroscopic (weight increase 2.0%≦Δm<15.0%)”.
